Reference: ChEMBL document CHEMBL4007399, “Discovery and Synthesis of a Phosphoramidate Prodrug of a Pyrrolo[2,1-f][triazin-4-amino] Adenine C-Nucleoside (GS-5734) for the Treatment of Ebola and Emerging Viruses” (J Med Chem, 2017)
The source made the active and inactive calls. No cut-off for these calls is given here.

Assays:
[1] = Cytotoxicity against human MT4 cells assessed as reduction in cell viability after 4 to 5 days by Cell-Titer Glo assay; format: cell-based; settings: MT4 cells
[2] = Cytotoxicity against human HuH7 cells assessed as reduction in cell viability after 3 days by calcein-AM dye based fluorescence assay; parameters: species or system Huh-7; settings: Huh-7 cells
Hepatitis C virus = assay: Antiviral activity against Hepatitis C virus genotype 1b infected in human HuH7 cells preincubated with cells for 3 days followed by viral infection by luciferase assay; format: functional, cell-based, Hepacivirus hominis; settings: Hepatitis C virus, genotype 1b, Huh-7
Human orthopneumovirus = assay: Antiviral activity against Respiratory syncytial virus A2 infected in human Hep2 cells assessed as reduction of virus-induced cytopathic effect after 4 days by Cell-Titer Glo assay; format: functional, cell-based; settings: human respiratory syncytial virus, A2, HEp-2, 96 h
[3] = Cytotoxicity against human Hep2 cells assessed as reduction in cell viability after 4 to 5 days by Cell-Titer Glo assay; format: cell-based, HEp-2; settings: HEp-2 cells
Ebolavirus [4] = assay: Antiviral activity against GFP-fused Ebolavirus infected in TERT-immortalized HMVEC assessed as reduction in viral replication preincubated with cells followed by viral infection measured after 3 to 4 days by fluorescence assay; format: functional; settings: Orthoebolavirus, HMVEC
Ebolavirus [5] = assay: Antiviral activity against Ebolavirus Kikwit infected in human HeLa cells assessed as reduction in viral glycoprotein levels preincubated with cells for 2 hrs followed by viral infection measured after 48 hrs by immunostaining based assay; format: functional, cell-based; settings: Orthoebolavirus, Kikwit, HeLa
[6] = Lipophilicity, log D of the compound after 30 mins by HPLC/UV method; format: physicochemical
[7] = Half life in human plasma at 2 uM by LC/MS/MS analysis; format: ADME, cell-free
Ebolavirus [8] = assay: Antiviral activity against Ebolavirus in phase-1 acute meningoencephalytis patient assessed as viral clearance in plasma at 150 mg, iv qd administered daily for 2 days followed by 225 mg for 14 days; format: functional, organism-based
Ebolavirus [9] = assay: Antiviral activity against Ebolavirus infected in newborn infant assessed as viral clearance; format: functional
Ebolavirus [10] = assay: Antiviral activity against Ebolavirus infected in rhesus monkey assessed as reduction in systemic viremia at 3 mg/kg, iv qd administered continuously starting from day 2 post infection for 12 days; format: functional, organism-based
Ebolavirus [11] = assay: Antiviral activity against Ebolavirus in phase-1 acute meningoencephalytis patient assessed as viral clearance in CNS at 150 mg, iv qd administered daily for 2 days followed by 225 mg for 14 days; format: functional, organism-based
Ebolavirus [12] = assay: Antiviral activity against Ebolavirus infected in rhesus monkey assessed as increase in survival at 10 mg/kg, iv administered daily starting from day 3 post infection followed by 3 mg/kg for 11 days measured up to 28 days; format: functional, organism-based

N#C[C@@]1(c2ccc3c(N)ncnn23)O[C@H](CO)[C@@H](O)[C@H]1F
CC50 [1]: 32 µM | CC50 at 72 h [2]: > 44 µM | EC50 (Hepatitis C virus): > 44 µM | EC50 (Human orthopneumovirus): > 100 µM

N#C[C@@]1(n2cnc3c(N)ncnc32)O[C@H](CO)[C@@H](O)[C@H]1O
CC50 [1]: > 53 µM | CC50 at 72 h [2]: > 88 µM | CC50 [3]: > 100 µM | EC50 (Ebolavirus [4]): 56 µM | EC50 (Hepatitis C virus): > 44 µM | EC50 (Human orthopneumovirus): > 100 µM

C[C@@]1(c2ccc3c(N)ncnn23)O[C@H](CO)[C@@H](O)[C@H]1O
CC50 [1]: 4.5 µM | CC50 at 72 h [2]: 62 µM | CC50 [3]: 93 µM | EC50 (Ebolavirus [4]): > 10 µM | EC50 (Hepatitis C virus): 38 µM | EC50 (Human orthopneumovirus): 5.5 µM

CC(C)OC(=O)[C@H](C)N[P@](=O)(OC[C@H]1O[C@@](C#N)(c2ccc3c(N)ncnn23)[C@](C)(O)[C@@H]1OC(=O)C(C)C)Oc1ccccc1 [GS-6620]
CC50 [1]: 7.8 µM | CC50 at 72 h [2]: 51 µM | CC50 [3]: 95 µM | EC50 (Ebolavirus [4]): 40 µM | EC50 (Hepatitis C virus): 0.31 µM | EC50 (Human orthopneumovirus): > 20 µM | EC50 (Ebolavirus [5]): > 20 µM

CCOC(=O)[C@H](C)NP(=O)(N[C@@H](C)C(=O)OCC)OC[C@H]1O[C@@](C#N)(c2ccc3c(N)ncnn23)[C@H](O)[C@@H]1O
CC50 [1]: > 53 µM | EC50 (Ebolavirus [4]): 9.1 µM | EC50 (Ebolavirus [5]): 20.4 µM | logD at 0.5 h [6]: < 0.3

N#C[C@@]1(n2ccc(N)nc2=O)O[C@H](CO)[C@@H](O)[C@H]1O
CC50 [1]: > 57 µM | CC50 at 72 h [2]: > 44 µM | CC50 [3]: > 100 µM | EC50 (Ebolavirus [4]): > 10 µM | EC50 (Hepatitis C virus): 12 µM | EC50 (Human orthopneumovirus): 7.3 µM | EC50 (Ebolavirus [5]): > 50 µM

C[C@@]1(O)[C@H](O)[C@@H](CO)O[C@@]1(C#N)c1ccc2c(N)ncnn12
CC50 [1]: > 57 µM | CC50 at 72 h [2]: > 44 µM | CC50 [3]: > 100 µM | EC50 (Ebolavirus [4]): > 10 µM | EC50 (Hepatitis C virus): > 44 µM | EC50 (Human orthopneumovirus): > 100 µM | EC50 (Ebolavirus [5]): 50 µM

CCOC(=O)[C@@H](NP(=O)(OC[C@H]1O[C@@](C#N)(c2ccc3c(N)ncnn23)[C@H](O)[C@@H]1O)Oc1ccccc1)C(C)C (stereo partly drawn)
half-life at 2 µM [7]: 26.4 h | CC50 [1]: > 100 µM | EC50 (Ebolavirus [4]): 3.15 µM | EC50 (Ebolavirus [5]): 7.04 µM | logD at 0.5 h [6]: 1.2

C#C[C@@]1(c2ccc3c(N)ncnn23)O[C@H](COP(=O)(N[C@@H](C)C(=O)OCC(CC)CC)Oc2ccccc2)[C@@H](O)[C@H]1O (stereo partly drawn)
CC50 [1]: > 32 µM | CC50 at 72 h [2]: > 44 µM | CC50 [3]: > 100 µM | EC50 (Ebolavirus [4]): 3.9 µM | EC50 (Hepatitis C virus): 6.9 µM | EC50 (Human orthopneumovirus): 1.1 µM

CCC(CC)COC(=O)[C@H](C)N[P@](=O)(OC[C@H]1O[C@@](C#N)(c2ccc3c(N)ncnn23)[C@H](O)[C@@H]1O)Oc1ccccc1
Activity (Ebolavirus [8]): Active | Activity (Ebolavirus [9]): Active | Activity (Ebolavirus [10]): Active | Activity (Ebolavirus [11]): Active | Activity (Ebolavirus [12]): Active

C[C@H](NP(=O)(OC[C@H]1O[C@@](C#N)(c2ccc3c(N)ncnn23)[C@H](O)[C@@H]1O)Oc1ccccc1)C(=O)OC(C)(C)C (stereo partly drawn)
half-life at 2 µM [7]: 26.4 h | CC50 [1]: > 100 µM | EC50 (Ebolavirus [4]): 3.79 µM | EC50 (Ebolavirus [5]): 30.4 µM | logD at 0.5 h [6]: 1.3

CC(C)OC(=O)[C@H](C)NP(=O)(OC[C@H]1O[C@@](C#N)(n2ccc(N)nc2=O)[C@H](O)[C@@H]1O)Oc1ccccc1 (stereo partly drawn)
CC50 [1]: 53 µM | CC50 at 72 h [2]: > 44 µM | CC50 [3]: > 100 µM | EC50 (Hepatitis C virus): 2.5 µM | EC50 (Human orthopneumovirus): 63 µM | EC50 (Ebolavirus [5]): > 20 µM

C[C@H](N[P@](=O)(OC[C@H]1O[C@@](C#N)(c2ccc3c(N)ncnn23)[C@H](O)[C@@H]1O)Oc1ccccc1)C(=O)OCC(C)(C)C
half-life at 2 µM [7]: 11.7 h | CC50 [1]: 3 µM | EC50 (Ebolavirus [4]): 0.092 µM | EC50 (Ebolavirus [5]): 0.168 µM | logD at 0.5 h [6]: 1.7
